The results in this text go back to US8283373B2, “Inhibitors of cytosolic phospholipase A2” (Pfizer Inc., priority 2005, dated 2012).

Entries after “also recorded” stand apart in the source; their conditions may differ.

In one experiment the test system is TXB2. Kind of experiment: Rat Whole Blood Assay (A23187-stimulated TXB2). It counts as cell-based. To be noted: Rattus norvegicus; A23187 5 μM. Summed up:
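Heparinized male Sprague-Dawley rat blood pre-incubated 15 min at 37 °C with compound or DMSO, then stimulated with 5 μM (final) A23187 for 10 min at 37 °C. Stopped with 20 mM EDTA; TXB2 in methanol-extracted plasma measured by ELISA.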

The next experiment relates to carrageenan paw edema. As to the kind of experiment: Carrageenan paw edema assay. Conditions: oral. It counts as in vivo. How it is done:
The carrageenan paw edema assay is an acute model of inflammation that is particularly useful for in vivo assessment of compounds that effect the production of prostaglandins. In particular, NSAIDs inhibit edema in a characteristic dose response fashion in this model, and the activity of NSAIDs in this model correlates well with the activity observed in man (See Mukherjee A, et al., Inflamm Res. 1996; 45:531-540). Therefore, the compound of Example 10 was tested in the carrageenan paw edema model.
Background: The carrageenan paw model is a standard test of acute inflammation.

For the next experiment, the system named is CFA-induced hyperalgesia. As to the kind of experiment: CFA-induced hyperalgesia model. It counts as in vivo, rat. To be noted: 6 hours after CFA. The text has this: The sensitivity of peripheral sensory neurons can be enhanced such that they respond to both noxious and non-noxious stimuli resulting in chronic pain (See Julius, D. et al., Nature. 2001; 413:203; Woolf, C. J., et al., Science. […]; 288:1765). Prostaglandins and leukotrienes at the site of inflammation and tissue damage are partially responsible for this potentiation of the pain response. Prostaglandins promote the phosphorylation of ion channels, increasing the excitability and lowering the pain threshold of sensory neurons. Analogously, leukotriene B4 and related arachidonate metabolites of 12-LO bind to and activate the capsaicin receptor (or VR1) ion channel on neurons that respond to heat and low pH (See Piomelli D., TRENDS in Pharmacological Sciences, January 2001; 22(1):17-29). The effect of the compound of Example 10 was measured in the CFA-induced hyperalgesia model, and lipid mediator production was measured at peripheral and central sites.
The animals were dosed with vehicle, the compound of Example 10, naproxen or celecoxib, and then CFA was immediately injected into the hind footpad. To assess hyperalgesia, pressure was applied to the left hind paw at a slow and constant rate using a digital force gauge. Measurements were taken at 0 and 6 hours. The application of the force was stopped when the animal vocalized, or struggled. Readings were taken prior to dosing and CFA injection, and repeated six hours after the CFA injection. Two independent experiments were run and the data were analyzed separately.
The paws were collected at the end of each experiment (6 hours) and the levels of PGE2, LTB4 and TXB2 were measured in the exudates.

For experiment [1], the system named is primary cerebellar granule neurons. As to the kind of experiment: Oxygen-glucose deprivation (OGD) in cultured cerebellar granule neurons. Conditions: for percent cell death (lactate dehydrogenase release), Avg.: OGD 2 hours, control 14, OGD 51. It counts as cell-based, rat. How it is done: Primary cerebellar granule neurons were isolated from P5-8 rat pups. Briefly, cerebelli were collected and pooled in ice-cold phosphate buffer saline (PBS) without Ca^2+ and Mg^2+. The tissue was finely chopped and transferred to an enzymatic dissociation media containing 20 IU/ml papain in Earle's balanced salt solution (Worthington Biochemical, Freehold, N.J.) and incubated for 30 minutes at 37° C. After enzymatic dissociation, the papain solution was aspirated and the tissue mechanically triturated with a fire-polished Pasteur pipette in complete media [Neurobasal Medium with B-27 supplement (Gibco, Grand Island, N.Y.), penicillin/streptomycin, aphidicolin, glutamate, potassium chloride] containing 2,000 IU/ml DNase and 10 mg/ml ovomucoid protease inhibitor. Single-cell suspensions in complete media were plated on pre-coated poly-L-ornithine/laminin 24-well plates (Becton-Dickinson, Bedford, Mass.) at a density of
5.0×10^5 cells/well. Cells were maintained for two weeks prior to experimentation.
Cultures were treated with Compound A at various concentrations, 60 minutes before OGD. Media was removed and replaced with deoxygenated buffer in an anaerobic chamber (80% nitrogen, 10% hydrogen, 10% carbon dioxide gas mixture). Fresh Compound A, Example 34 or Example 41 was added to the cultures and maintained in the anaerobic chamber for 2 hours. At the end of the incubation, fresh media was exchanged and fresh Compound A was added. Cultures were maintained for an additional 24 hours in a normoxic incubator. Cell death was determined by measuring lactate dehydrogenase release into the media 24 hours later (Roche Biochemicals). In the table below, values are shown for the control, OGD, various concentrations of Compound A, and MK801, a NMDA receptor antagonist, which is a positive control.

Experiment [2] relates to primary dopaminergic neurons. As to the kind of experiment: MPP+ exposure in dopaminergic neurons. It counts as cell-based, rat. Conditions: 10 μM MPP+ 60 minutes, control 100, MPP+ alone 56.6. How it is done:
Primary dopaminergic neurons were isolated from E15 rat embryos as described in Pong K., et al., (1997) J. Neurochem. 69 986-994. Briefly, the ventral mesencephalon was isolated and tissue was pooled in ice-cold phosphate buffer saline (PBS) without Ca^2+ and Mg^2+. The tissue was transferred to an enzymatic dissociation media containing 20 IU/ml papain in Earle's balanced salt solution (Worthington Biochemical, Freehold, N.J.) and incubated for 30 minutes at 37° C. After enzymatic dissociation, the papain solution was aspirated and the tissue mechanically triturated with a fire-polished Pasteur pipette in complete media [Neurobasal Medium with B-27 supplement (Gibco, Grand Island, N.Y.), penicillin/streptomycin, aphidicolin, glutamate] containing 2,000 IU/ml DNase and 10 mg/ml ovomucoid protease inhibitor. Single-cell suspensions in complete media were plated on pre-coated poly-L-ornithine/laminin 24-well plates (Becton-Dickinson, Bedford, Mass.) at a density of 5.0×10^5 cells/well. Cells were maintained for one week prior to experimentation.
Cultures were exposed to 10 μM MPP^+ for 60 minutes. After the exposure, fresh media was exchanged and fresh compound was added. Dopaminergic neuron viability was determined 24 hours later by measuring ^3H-dopamine uptake as described in Pong et al., 1997, supra.

A word on the IC50: it is the concentration that gives 50% inhibition. Read a high IC50 as weaker potency. Broadly, the ED50 is the dose at which the effect has come halfway, by size or by number of responders. In the experiment with TXB2, `O=C(O)c1ccc(CCCc2c(CCNS(=O)(=O)Cc3ccccc3C(F)(F)F)n(C(c3ccccc3)c3ccccc3)c3ccc(Cl)cc23)cc1` [Example 10, 4-(3-{5-chloro-1-(diphenylmethyl)-2-[2-({[2-(trifluoromethyl)benzyl]sulfonyl}amino)ethyl]-1H-indol-3-yl}propyl)benzoic acid] came in with an IC50 of 20 nM. Also, the Paw edema entry in the experiment on carrageenan paw edema (2 hours before carrageenan, doses as low as 3 mg/kg) is “statistically significantly decreased; also recorded: significantly inhibited edema”. Further, in the experiment with carrageenan paw edema (based on a maximal inhibition of 50%, read-out: approximate ED50 of paw edema inhibition), the ED50 is around 7.5 mg/kg. Also, the “pain (paw pressure) compared to vehicle control” value in the experiment on CFA-induced hyperalgesia (25 mg/kg) is “statistically significant decrease; also recorded: effective”. Besides, in the experiment on CFA-induced hyperalgesia, the “LTB4 levels in paw exudates” value is on record as “significantly inhibited” and the “TXB2 levels in paw exudates” value was “greater than the inhibition with celecoxib”. Also, in the experiment with CFA-induced hyperalgesia (Example 10 at 25 mg/kg), the “PGE2 levels in paw exudates” value is on record as “significantly inhibited”.
Consider `Cc1cccc(C)c1CS(=O)(=O)NCCc1c(CCCc2ccc(C(=O)O)cc2)c2cc(Cl)ccc2n1C(c1ccccc1)c1ccccc1` [Compound A, 4-{3-[1-benzhydryl-5-chloro-2-(2-{[(2,6-dimethylbenzyl)sulfonyl]amino}ethyl)-1H-indol-3-yl]propyl}benzoic acid], for which the “protection of cultured neurons from OGD-induced cell death” value in experiment [1] was “effective in protecting cultured neurons from OGD-induced cell death”. Also, the “percent cell death (lactate dehydrogenase release), Avg.” value in experiment [1] (0.1 μM) turned out to be 38%; in experiment [1] (0.3 μM), 31%; in experiment [1] (1 μM), 27%; in experiment [1] (3 μM), 20%. The “dopaminergic neuron viability (3H-dopamine uptake), Avg.” value in experiment [2] (0.3 μM) amounted to 76.9; in experiment [2] (1 μM) it was 83.4; in experiment [2] (3 μM), 78.8; in experiment [2] (10 μM) it was 81.1.
